Experimental data published in patent US12655380B2, “Fluidic device” (UNIVERSITY PUBLIC CORPORATION OSAKA, priority 2019, dated 2026).

Tested on: BBB model (human cerebrovascular endothelial cells, pericytes, astrocytes)
Experiment: Barrier Function Evaluation Experiment 2: passage of the fluorescent dye through the BBB model in the fluidic device
Format: in vitro ADME
Details: 200 μM Lucifer Yellow in first flow path; after 5 minutes (300 seconds) flow; measured in the neuron cell culture module in the second accommodation section, behind the BBB model; FIG. 25(b)/FIG. 26
Procedure: Specifically, a cubic polycarbonate three-dimensional frame having a side length of 5 mm was prepared, and a 1.5% agarose gel was poured into an opening of the three-dimensional frame and gelled to form a film-shaped window from the resulting hydrogel. The window was formed on each of five faces of the three-dimensional frame as described above. Thereafter, a clump of neurons differentiated from human brain-derived neural stem cells and Matrigel (registered trademark) being an un-gelled culture gel were injected into a cubic space within the three-dimensional frame, and the culture gel was gelled. Then, a hydrogel window was formed on a remaining face of the three-dimensional frame. Through the above, the cell culture module including neurons was produced. […]
An experiment was conducted for evaluation of the barrier function of the BBB model. […] After the fluorescent dye solution and the medium had flowed for 5 minutes (300 seconds), a fluorescence image and a phase-contrast image of the inside of the cell culture module were captured through the fluidic device.
FIGS. 24(a) and 24(b) each show a fluorescence image (left) of the inside of the cell culture module including neurons used in the control experiment, and an image (right) obtained by superimposing the fluorescence image and a phase-contrast image on one another. […]

Lucifer Yellow [fluorescent dye]
relative luminance value on dashed line x-x' (corresponds to Lucifer Yellow concentration): approximately 0.1
